Experimental data taken from US11674967B2, “Method of identifying potential inhibitors of APO TNFα trimers” (UCB BIOPHARMA SRL, priority 2015, dated 2023).

Columns and labels:
TNFα [1] = target: T1, TNFα (Homo sapiens, UniProt P01375); assay: Surface plasmon resonance kinetics of compound binding to immobilised TNFα
Experimental: Surface plasmon resonance was used to measure the association rate, the dissociation rate and the affinity of the compounds of formulae (3) and (15) for TNFα (FIGS. 12A and B). For the purpose of this study a Biacore T100/T200 was used.
TNFα was immobilised at pH5 to a level of 5-8 KRU onto a CMS sensor in HBS-P buffer (10 mM HEPES pH 7.4, 0.15 M NaCl, 0.005% Surfactant P20, BIAcore, GE Healthcare). The TNFα was then equilibrated in HBS-P with 5% DMSO for at least 5 hours. The samples were diluted from 10 mM stocks into DMSO matched buffer and left to solubilise for at least 5 hours. The flow rate was […].
This assay was performed by adding 4 or 5 concentrations of compound starting from a highest concentration of 25 μM for compound of formula (3) and 1 μM for compound of formula (15) and then serially diluting this sample. Background subtraction binding curves were analysed using the BIAevaluation software following standard procedures. Binding, affinity and kinetic parameters were determined using Biacore software. The kinetic data were fitted using the levenberg marquardt algorithm.
Target sequence in this assay (P01375 77-233 limits assumed): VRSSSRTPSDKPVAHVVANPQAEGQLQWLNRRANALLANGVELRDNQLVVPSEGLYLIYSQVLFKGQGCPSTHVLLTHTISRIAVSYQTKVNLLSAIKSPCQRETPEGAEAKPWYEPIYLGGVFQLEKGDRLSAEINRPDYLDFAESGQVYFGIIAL

[2] = system: TNFα-induced IL-8 production; assay: TNFα-induced IL-8 production by human monocytes; type: cell-based; conditions: TNFα ~1 ng/ml, 18 hours
Experimental: Venous blood from healthy donors was collected by venupuncture into sodium/heparin containing tubes (BD Biosciences). Peripheral blood mononuclear cells (PBMC) were isolated by density gradient centrifugation with Ficoll Paque (Amersham Biosciences). Briefly, 10 mL of blood was diluted 1:1 (v/v) with RPMI 1640 (Gibco) and carefully layered onto 20 mL Ficoll Paque. Cells were spun down for 30 minutes (min) at 470 g, the PBMC collected, washed once in RPMI 1640 and any remaining contaminating erythrocytes lysed in erythrocyte lysis buffer (1 g/L KHCO3, 8.3 g/L NH4Cl, 0.0372 g/L EDTA). Isolation of monocytes from the PBMC was performed using CD14+ Magnetic MicroBeads (Miltenyi Biotec) according to the manufacturer's instructions. Briefly, PBMC were resuspended in Dulbecco's modified Eagle's medium containing 5% BSA (Sigma) and 2 mM EDTA (Sigma) at 1×10^7 cells/ml. […] of CD14 MicroBeads per 10^7 total cells were incubated for 15 min at room temperature. The magnetic separation was performed using a LS column (Miltenyi Biotec). […]
Human IL-8 was measured in the cell culture supernatants using enzyme-linked immunosorbent assay (ELISA) kits from R&D Systems Ltd. according to the manufacturer's instructions. […] Plates were read at a wavelength of 630 nm with correction at 470 nm.

TNFα [3] = target: T1, TNFα; assay: LC-MS of size exclusion fractions of TNFα, TNF-R and compound; type: binding; design: purchased R&D Systems; conditions: either order of addition
Experimental: Fractions from size exclusion chromatographic separation of mixtures of TNFα, TNF-R and the compound of formula (3) were analysed by liquid chromatography-mass spectrometry (LC-MS). Two samples were prepared for size exclusion chromatography.
Target sequence in this assay (P01375 77-233 limits assumed): as above
Target sequence in this assay (P19438 30-211 partner limits assumed): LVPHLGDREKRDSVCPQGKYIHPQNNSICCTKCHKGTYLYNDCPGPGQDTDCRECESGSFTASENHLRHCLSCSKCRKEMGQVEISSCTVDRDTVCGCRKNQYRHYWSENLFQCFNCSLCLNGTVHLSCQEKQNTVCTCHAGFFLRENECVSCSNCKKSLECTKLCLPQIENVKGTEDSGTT

TNFR2 = assay: Membrane TNF - TNFR2 signalling (NS0-mTNF cells with expanded primary human T cells); type: cell-based; conditions: compound bound to membrane TNFα on NS0 cells
Experimental: A murine B cell line (NS0-mTNF) stably expressing non-cleavable human membrane TNF due to a mutation at the TACE cleavage site was used to trigger TNFR2 signalling in PHA-L and IL-2 expanded primary human T cells. […] TNFR1 was also present on these cells but was blocked using a UCB mouse anti-human-TNFR1 antibody 5R16.
NS0-mTNF cells were cultured with 10 μM NCEs for 1 hour to allow binding of Compounds to membrane TNF. T cells were then mixed with the NS0-mTNF cells and following a brief spin to allow cell-cell contact, cells were incubated for 5 min and then lysed in lysis buffer. […] First TRAF-2 recruitment to the TNFR2 receptor was measured in Co-immunoprecipitation experiments as a measure of membrane proximal signalling. After lysis of cells TNFR2 was isolated from the lysate using polyclonal goat anti-human TNFR2 antibodies followed by protein G sepharose bead purification. TNFR2 associated TRAF-2 was then measured in immunoblots after running the purified TNFR2 preparation on a SDS-PAGE. In addition, the whole cell lysate was also sampled for the presence of pNFκB using SDS-PAGE and pNFκB specific immunoblots.
• PBMC from 3 three different donors were cultured in 6 well plates with 10×10^6 cells per well in 5 ml of RPMI1640 supplemented with 10% FCS, 1% human serum, HEPES GlutaMAX, 25 U/ml hIL-2 (Roche) and 2 μg/ml PHA-L (Sigma) to grow out T cells • after 3 days cells were resuspended and cultured in 75 cm^2 flasks with the same media as above, but lacking the PHA-L • growth of culture was monitored and media was changed every 3 days.
This is a 2× solution • prepare 500 μl of 10×10^6 NS0-wt cells • After 1 h add 500 μl human T cells (50×10^6 cells/test) in human media at 37° C. T cells were preincubated for 15 min @37° C. with 50 μg/ml 5R16 anti-TNFR1 Fab-PEG to block signalling via TNFR1 prior adding to the NS0 cells. […]

Row | SMILES | dissociation rate constant (koff) (TNFα [1]) [e^−5 s^−1] | kon (TNFα [1]) [e^3 M^−1 s^−1] | IC50 [2] [µM] | binding to TNFα in the presence of TNF-R (TNFα [3]) | TNFR2 specific membrane proximal (TRAF-2 recruitment to TNFR2) and downstream (pNFκB) signalling (TNFR2)
1 | Cc1ccc(C)c(Cn2c(C(O)c3ccncc3)nc3ccccc32)c1 (centres unmarked) [Compound 3] | 9.46 | 2.668 | 0.454 | binds to TNFα even in the presence of TNF-R | 
2 | Cc1ccc(C)c(Cn2c(C(O)c3ccncc3)nc3ccc(-c4cnn(C)c4)cc32)c1 (centres unmarked) [Compound 15] |  |  |  |  | does not impair
